Test results from patent US4395404A, “Synthetic thymosin β3 and β4 analogues” (George Washington University, priority 1982, dated 1983).
Where no end group is shown, it is not given here.

Key:
[1] = system: Peritoneal exudate cells (PEC) from guinea pig; assay: Macrophage Migration Inhibitory Factor (MIF) assay, nonspecific inhibition of macrophage migration; type: cell-based, Hartley strain guinea pigs; settings: less than 20% considered insignificant
Experimental: The standardized Macrophage Migration Inhibitory Factor (MIF) assay for natural thymosin β4, synthetic thymosin β4, compounds of formula XVI, (designated C12 β3), formula VI (designated C8 β4), formula IV (designated C10 β4), and formula VIII (designated C6 β4) was performed following the method of Thurman, et al., Lymphokines and Thymic Hormones: Their Potential Utilization in Cancer Therapeutics, ed. by Goldstein and Chirigos, Raven Press, New York, pp 145-157 (1981). Peritoneal exudate cells (PEC) from guinea pig were prepared in Hartley strain guinea pigs by injecting 20-30 ml of sterile mineral oil 3-5 days prior to the assay. On the day of the assay, the guinea pigs were anesthetized and injected i.p. with 50 ml of RPMI-1640. Following abdominal massage, the peritoneum was opened with a one inch incision in the umbilical region and the peritoneal fluids withdrawn. The peritoneal fluids were centrifuged at 200×g for 10 min and the pelleted cells resuspended in a small volume of RPMI for transfer to clean tubes. Following three more washes, the cells were resuspended, counted and adjusted to 45×10^6/ml for use. In some experiments mouse PEC were used in place of guinea pig PEC. The mouse PEC were induced in BALB/c normal or nude mice by injecting 1 ml of mineral oil i.p. 3 days prior obtaining the cells by washing the peritoneum with 5 ml of RPMI 1640. In some experiments macrophage-like cell lines, WEHI-3 and FC-1, were used in place of PEC. The WEHI-3 cells migrate and have been reported to respond to migration inhibitory factor (MIF). Likewise, the FC-1 cells are also migratory and respond to MIF. […] The percent nonspecific inhibition (PNSI) was calculated as: [formula] […] Percent nonspecific inhibition of migration of less than 20% was also considered insignificant. The date from these experiments are compiled in Table 3.

Splenic lymphocytes = assay: In vivo restoration of splenic mitogenic responses in HCA suppressed mice (tritiated thymidine incorporation); set-up: species or system C57B1/6J mice; settings: for Mitogens PHA-P (cpm): HCA-saline 12,000, normal 30,000; for Mitogens Con A (cpm): HCA-saline 86,000, normal 210,000
Experimental: The in vivo effect of thymosin fractions (supra) on restoration of splenic mitogenic responses in HCA suppressed C57B1/6J mice was assayed and determined by the following method.
Splenic lymphocytes were removed sterilly, placed in plastic petri dishes containing RPMI 1640 (with 25 mM HEPES buffer, 100 μ/ml penicillin, 100 μg/ml streptomycin and 2mM L-glutamine) and a 64-mesh stainless steel wire screen. Single cell suspensions were obtained by further passage through a 25 GA needle. The cells were washed twice, counted using a Coulter Counter Model A and suspended to give a concentration of 6×10^6 leukocytes/ml. Cultures were prepared in flat bottom 96 well microtiter plates by placing 0.10 ml of the cell suspension into each well plus 0.05 ml 20% heat inactivated fetal calf serum (FCS) (resulting in 6×10^5 cells/well in 5% FCS final). Control cultures received 0.05 ml of RPMI 1640, and the stimulated cultures received 0.025 ml of RPMI 1640 containing various concentrations of thymosin and 0.025 ml of various concentrations of PHA-P (Difco, Detroit, Michigan), Con-A (Calbiochem, Oxnard, California), PWM (GIBCO, Grand Island, New York) or E. coli LPS (Difco, Detroit, Michigan) all made up in RPMI 1640. Cultures were pulsed by adding 1 uCi tritiated thymidine, 1.9 Ci/mM (Schwartz/Mann,Orangeburg, New Jersey), in 0.02 ml of RPMI 1640 8 hours before culture termination. Cultures were harvested utilizing a Multiple-Automated Sample Harvester (Microbiological Associates, Bethesda, Maryland). The resulting filter spots were dried and placed in glass liquid scintillation mini-vials to which was added 1 ml of scintillation cocktail. The vials were stoppered and the tritiated thymidine incorporation analyzed by scintillation spectrophotometry on an LKB liquid scintillation counter to provide Con A (cpm) and PHA-P (cpm). Processing of the data and necessary statistical tests were performed on a Wang 700 C Advanced Programming Calculator (Wang Labs, Tewksbury, Massachusetts) and are compiled in columns 1-2 and 5-6 of Table 2.

[2] = system: TdT activity in thymocytes; assay: In vivo effect on TdT activity in thymocytes of hydrocortisone acetate (HCA) treated mice; set-up: species or system C57B1/6J mice; settings: for TdT Specific Activity: daily for 11 days after 1.25 mg HCA at day 0, HCA-saline 6.4, normal 8.9; for TdT % Increase over HCA-saline: daily for 11 days after HCA
Experimental: The in vivo effect of thymosin fractions, i.e. thymosin β3 (designated HCA-thymosin β3), thymosin β4 (designated HCA-thymosin β4), thymosin fraction 5 (designated HCA-thymosin fr 5), compound of formula VI (designated HCA-synthetic C8 β4) and compound of formula XVI (designated HCA-synthetic C12 β3, on TdT activity in thymocytes of hydrocortisone acetate (HCA) treated C57B1/6J mice was assayed and determined according to the method of Hu, et al., 38, 1079 (1979).
For TdT activity determination [(following the Hu et al method (supra)], a 1.25 mg HCA injection per animal was carried out at day zero (0). Each injection was followed by daily treatment of the animal with the thymosin fractions (supra) or controls, i.e. no HCA and HCA-saline, for eleven (11) consecutive days. The increase in TdT specific activity (nmoles of dGTP incorporated per 10^8 thymocytes per hour) over that of HCA-saline treated animals was determined, the data compiled in columns 1-4 of Table 2.

T-cell populations = settings: partially purified; Low and Goldstein 1978; cited from earlier work
macrophages = settings: Thurman et al. 1981; cited from earlier work
[3] = system: TdT positive cells in the thymus; settings: following steroid induced immunosuppression; Low et al. 1981; cited from earlier work

Substance | PNSI (percent nonspecific inhibition of macrophage migration) ([1]; 0.0005 nmoles/ml) [%] | PNSI (percent nonspecific inhibition of macrophage migration) ([1]; 0.005 nmoles/ml) [%] | PNSI (percent nonspecific inhibition of macrophage migration) ([1]; 0.05 nmoles/ml) [%] | PNSI (percent nonspecific inhibition of macrophage migration) ([1]; 0.5 nmoles/ml) [%] | Mitogens PHA-P (cpm) (Splenic lymphocytes; 10 μg/injection) | Mitogens Con A (cpm) (Splenic lymphocytes; 10 μg/injection) | TdT Specific Activity ([2]; 10 μg/injection) | TdT % Increase over HCA-saline ([2]; 10 μg/injection) [%] | Induction of TdT positive cells in T-cell populations (T-cell populations) | Mitogens PHA-P (cpm) (Splenic lymphocytes; 1 μg/injection) | Mitogens Con A (cpm) (Splenic lymphocytes; 1 μg/injection) | Migration of macrophages (macrophages) | TdT Specific Activity ([2]; 1 μg/injection) | TdT % Increase over HCA-saline ([2]; 1 μg/injection) [%] | Reappearance of TdT positive cells in the thymus [3]
IEQEKQQAGES [C10 β4, L-Isoleucyl-L-glutamyl-L-glutaminyl-L-glutamyl-L-lysyl-L-glutaminyl-L-glutaminyl-L-alanyl-glycyl-L-glutamyl-L-serine] | -5.3 | 10.7 | 18.8 | 21.6 | – | – | – | – | – | – | – | – | – | – | –
KQAGES [C6 β4, L-Lysyl-L-glutaminyl-L-alanyl-glycyl-L-glutamyl-L-serine] | 3.1 | -5.1 | 15.2 | 18.3 | – | – | – | – | – | – | – | – | – | – | –
QAGESDEITAKT [C12 β3, L-Glutaminyl-L-alanyl-glycyl-L-glutamyl-L-seryl-L-aspartyl-L-glutamyl-L-isoleucyl-L-threonyl-L-alanyl-L-lysyl-L-threonine] | 23.5 | 24.7 | 29.7 | 30.2 | 65,000 cpm | 110,000 cpm | 8.2 nmoles of dGTP incorporated pe | 28 | – | – | – | – | – | – | –
QEKQAGES [C8 β4, L-glutaminyl-L-glutamyl-L-lysyl-L-glutaminyl-L-alanyl-glycyl-L-glutamyl-L-serine] | 5.5 | 27.0 | 25.4 | 24.1 | 11,000 cpm | 140,000 cpm | 7.6 nmoles of dGTP incorporated pe | 19 | – | – | – | – | – | – | –
Synthetic thymosin β4: synthetic thymosin β4, tested beside natural thymosin β4 in the MIF assay (SDKPDMAEIEKFDKSKLKKTETQEKNPLPSKETIEQEKQAGES; Thymosin beta-4 synthetic; UniProt P62328 2-44, looked up) [reference compound] | – | 25.0 | 25.9 | 30.3 | – | – | – | – | – | – | – | – | – | – | –
thymosin β3 [HCA--Thymosin β3, reference compound] | – | – | – | – | – | – | – | – | induce TdT positive cells | 27,000 cpm | 120,000 cpm | inhibit the migration of macrophages | 9.7 nmoles of dGTP incorporated pe | 52 | accelerate the reappearance of TdT positive cells in the thymus
thymosin β4 [Natural thymosin β4, reference compound] | – | 23.1 | 29.2 | 37.6 | – | – | – | – | induce TdT positive cells | 10,000 cpm | 125,000 cpm | inhibit the migration of macrophages | 8.8 nmoles of dGTP incorporated pe | 38 | accelerate the reappearance of TdT positive cells in the thymus
